BindingDB's records for aid1799744 (Csar, 2012)
pKi: −log10 of the molar value. Where “and” joins values, the source holds several entries; their conditions need not be identical. Identical values can stand only once.

Target: Mitogen-activated protein kinase 1 (Homo sapiens, UniProt P28482)
Test: Assay 1

Chain of Mitogen-activated protein kinase 1 (P28482 whole entry): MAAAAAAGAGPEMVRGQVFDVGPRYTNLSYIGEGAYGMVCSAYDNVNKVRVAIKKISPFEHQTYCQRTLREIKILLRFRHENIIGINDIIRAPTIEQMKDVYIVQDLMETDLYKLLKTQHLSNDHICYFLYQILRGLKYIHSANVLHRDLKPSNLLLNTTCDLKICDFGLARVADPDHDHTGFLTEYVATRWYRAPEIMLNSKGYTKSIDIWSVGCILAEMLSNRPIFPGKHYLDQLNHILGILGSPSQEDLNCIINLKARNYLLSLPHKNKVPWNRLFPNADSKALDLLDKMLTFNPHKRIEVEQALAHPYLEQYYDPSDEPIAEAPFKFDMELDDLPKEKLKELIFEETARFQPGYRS

| SMILES | pKi |
| --- | --- |
| Cc1cnc(N[C@H]2CCC[C@@H]2O)nc1-c1c[nH]c(C(=O)N[C@H](CO)c2cccc(Cl)c2)c1 [erk000613] | 7.46 |
| Cc1cnc(Nc2cccc3c2CCC3)nc1-c1c[nH]c(C(=O)N[C@H](CO)c2ccccc2)c1 [erk000556] | 8.52 |
| O=C(c1cc(-c2n[nH]cc2-c2cc(Cl)cc(Cl)c2)c[nH]1)N1CCOCC1 [erk000124] | 6.09 |
| Fc1ccc(-c2n[nH]cc2-c2ccnc(NC3CCCCC3)c2)cc1 [erk000125] | 5.59 |
| c1ccc2c(Nc3cc(C4CC4)n[nH]3)nc(Nc3ccc4nc[nH]c4c3)nc2c1 [erk000508] | 7.11 |
| C[C@@H]1CCN(C(=O)CC#N)C[C@@H]1N(C)c1nc(Nc2ccc(N3CCOCC3)cc2)nc2[nH]cnc12 [erk000723] | 6.39 |
| Cc1cnc(N[C@H]2CCOC2)nc1-c1c[nH]c(C(=O)N[C@H](CO)c2cccc(Cl)c2)c1 [erk000631] | 6.68 |
| Cc1cnc(Nc2c(F)cccc2F)nc1-c1c[nH]c(C(=O)N[C@H](CO)c2cccc(Cl)c2)c1 [erk000593] | 7.85 |
| Cc1cccc([C@@H](CO)NC(=O)c2cc(-c3nc(NC4CCOCC4)ncc3C)c[nH]2)c1 [erk000602] | 8.52 |
| C[S+]([O-])c1ccc(-c2nc(-c3cccc(I)c3)c(-c3ccncc3)[nH]2)cc1 (stereo not drawn) [erk000253] | 4.89 |

Further lines, results first:

| pKi | SMILES |
| --- | --- |
| 7.77 | Cc1cnc(NCC2CCOCC2)nc1-c1c[nH]c(C(=O)N[C@H](CO)c2ccccc2)c1 [erk000638] |
| 7.82 | Cc1cnc(N[C@@H](C)CO)nc1-c1c[nH]c(C(=O)N[C@H](CO)c2ccccc2)c1 [erk000471] |
| 6.96 and 7.22 | CCN1CCC[C@H]1CNc1ncc(C)c(-c2c[nH]c(C(=O)N[C@H](CO)c3ccccc3)c2)n1 [erk000530] |
| 5.60 | COc1ccccc1CNC(=O)c1cc(-c2nc(N)ncc2C)c[nH]1 [erk000312] |
| 7.85 | Cc1cnc(N[C@H](C)CO)nc1-c1c[nH]c(C(=O)N[C@H](CO)c2ccccc2)c1 [erk000462] |
| 7.59 | Cc1cnc(NOCC2CC2)nc1-c1c[nH]c(C(=O)N[C@H](CO)c2ccccc2)c1 [erk000500] |
| 7.08 | CCNc1ncc(C)c(-c2c[nH]c(C(=O)NCc3cccc(F)c3)c2)n1 [erk000474] |
| 7.17 | CNc1ncc(C)c(-c2c[nH]c(C(=O)N[C@@H](CO)c3ccc(F)c(Cl)c3)c2)n1 [erk000396] |
| 9.00 | Cc1cnc(NN2CCCCC2)nc1-c1c[nH]c(C(=O)N[C@H](CO)c2ccccc2)c1 [erk000587] |
| 8.05 | COC[C@@H]1CCCN1Nc1ncc(C)c(-c2c[nH]c(C(=O)N[C@H](CO)c3cccc(Cl)c3)c2)n1 [erk000622] |
| 8.40 | Cc1cccc([C@@H](CO)NC(=O)c2cc(-c3nc(NCC(F)(F)F)ncc3C)c[nH]2)c1 [erk000647] |
| 7.57 | CC[C@@H](COC)Nc1ncc(C)c(-c2c[nH]c(C(=O)N[C@H](CO)c3ccccc3)c2)n1 [erk000549] |
| 8.70 | Cc1cnc(Nc2cccc(F)c2C)nc1-c1c[nH]c(C(=O)N[C@H](CO)c2ccccc2)c1 [erk000538] |
